Reference: patent US5981517A, “Androstene derivatives” (priority 1997, dated 1999)

Experiments:
[1] = test system: forearm of a human volunteer; assay: Human vasoconstriction test; type: in vivo; design: key: 0 = normal skin, 4 = very intense pallor; conditions: 10 mM
Description: Test compounds (10 mM) were dissolved in ethanol/propylene glycol (9/1) solution, and 50 μL of the mixtures were applied to circular patches, 8 mm in diameter. After ethanol evaporation, the patches were applied to the forearm of a human volunteer, and covered with a water impervious film for 3 hours. The intensity of vasoconstriction was judged 1, 8, 17 and 24 hours after the patches were removed.
The grading scale for the vasoconstriction activity was as follows: 0, normal skin; 1, slight pallor of indistinct outline; 2, pallor with at least two corners outlined; 3, even pallor with a clear outline of the application sites; 4, very intense pallor.

[2] = physchem; type: physicochemical
Description: (§1) A Whatman C-18 column (4.6 mm×108 mm) was connected to a Spectra-Physics component system consisting of a SP 8810 precision isocratic pump, Rheodyne 7125 injector (20 μL injection volume), SP 8450 UV/VIS variable wavelength detector (230 nm), and SP 4290 integrator. The system was operated at ambient temperature. The mobile phase consisted of acetonitrile, acetic acid and water (60:0.1:40). At a flow rate of 1.0 mL/minute, the retention times for the test compounds were 4.74 minutes for Compound A, 5.84 minutes for Compound B, 6.93 minutes for Compound C, and 5.72 minutes for Compound D.
(§2) HPLC peak area and peak height were used as a measure of the concentration of the test compounds and plotted against time to evaluate the disappearance rates of the compounds. The stability was determined by measuring the pseudo-first order rate constant (kobs in min^-1) or half-life (t1/2 in min) of disappearance of the test compound in buffer. […].
The stabilities of test compounds A, B, C, and D, were tested in buffer solutions in the pH range of 4.0 to 9.0. A 0.1 mL portion of each compound at a concentration of 1 mM was mixed with 10 mL phosphate buffer (made by combining 0.05 M of NaH2 PO4 and 0.05 M of Na2 HPO4 with 0.05 M of NaCl) to give a final concentration of 0.01 mM. The mixtures were incubated at 37° C., and samples were taken and injected in the HPLC system at appropriate time intervals. pH profiles of each test compound are shown in TABLE III below. […]

[3] = Stability in liver homogenate; type: in vitro ADME, rat; conditions: rat, liver homogenate
Description: as §1, §2
(§3) A 0.2 mL aliquot of stock solution (1 mM) of each of the test compounds A, B, C, and D, was added to 2 mL of each biological media (whole heparinized rat blood, 20% rat liver homogenate, and 6-volume diluted lung homogenate in isotonic buffer of pH 7.40 made by combining 0.05 M of Na2 HPO4 and 0.05 M of NaH2 PO4 with 0.05 M of NaCl), which was kept in a 37° C. water bath, to obtain a final concentration of 0.1 mM in each biological medium. Samples of 0.1 mL were taken at appropriate time intervals for 2 hours (at 0, 3, 5, 10, 20, 40, 60, 90 and 120 minutes) and mixed with 0.2 mL of acetonitrile containing 5% DMSO. Each mixture was centrifuged and the supernatant was injected in the HPLC.

[4] = Stability in lung homogenate; type: in vitro ADME; conditions: rat, lung homogenate
Description: as §1, §2, §3

[5] = Stability in rat blood; type: in vitro ADME; conditions: rat, blood
Description: as §1, §2, §3

[6] = Stability in human plasma; type: in vitro ADME; conditions: human, plasma
Description: (§4) A Waters NOVA-PAK phenyl column was connected to a Spectra-Physics component system consisting of a SP 8810 precision isocratic pump, a Rheodyne 7125 injector (injection volume 20 μL), an SP 8450 UV/VIS variable wavelength detector (operated at 254 nm) and a SP 4270 integrator. […]. The retention times of compound of the invention J and its metabolities L and M were 8.64, 2.70 and 2.45 minutes, respectively. The retention times of compound of the invention I and its metabolites N and 0 were 5.84, 2.70 and 1.81 minutes, respectively. The retention time of cortienic acid was 1.00 minute.
(§5) Freshly collected human or rat plasma was used. An aliquot of 10 mM test compound in ethanol solution was added to prewarmed (37° C.) plasma to yield a final concentration of 100 μM. At appropriate time intervals, samples (0.1 mL) were removed and mixed with 0.2 mL of 5% dimethylsulfoxide/acetonitrile solution. Mixtures were centrifuged and supernatants were analyzed by HPLC. The pseudo-first order rate constant of the disappearance of compound in the biological media was determined by linear regression analysis from the plot of log peak area and peak height versus time.
(§6) Stability was evaluated by the pseudo first-order rate constant (k, hr^-1) and half-life (t1/2, hr) of the disappearance of the test compound in the media.

[7] = test system: forearm of a human volunteer; assay: Further human vasoconstriction testing, Method 2; type: in vivo; design: key: +: "positive" (pallor could be observed); -: "negative" (pallor could not be detected)
Description: The mixtures, in 20 μL amounts, were applied to circular patches (1/4 inch diameter). The patches were applied to the forearm of a human volunteer, and covered with a water impervious film for 3 hr. Vasoconstriction activity was judged by the appearance of pallor at various time points after the patches were removed. Tests were performed on the same person and the results were obtained from 2-4 observations.
In TABLE XIV above, "-" means a negative result was obtained. In other tables herein, "-" means not tested.
In TABLE XIV above, the results of a simpler method of judging vasoconstriction activity was used in which only "positive" (pallor could be observed) or "negative" (pallor could not be detected) results were recorded.

[8] = Stability in rat plasma; type: in vitro ADME; conditions: rat, plasma
Description: as §4, §5, §6

[9] = aqueous phosphate buffer, pH 4.5
[10] = aqueous phosphate buffer, pH 6.56
[11] = aqueous phosphate buffer, pH 7.4
[12] = aqueous phosphate buffer, pH 8.08

CC(C)OC(=O)[C@@]1(OC(=O)C(Cl)Cl)CC[C@H]2[C@@H]3CCC4=CC(=O)C=C[C@]4(C)[C@H]3[C@@H](O)C[C@@]21C [Compound C, Isopropyl 17α-dichloroacetoxy-11β-hydroxyandrosta-1,4-dien-3-one-17β-carboxylate]
Vasoconstriction activity ([1]; 1 hour after patch removal): 3
Vasoconstriction activity ([1]; 8 hours after patch removal): 4
Vasoconstriction activity ([1]; 17 hours after patch removal): 3
Vasoconstriction activity ([1]; 24 hours after patch removal): 2
half-life [2, 9]: > 48 h
half-life [2, 10]: 11.3 h
half-life [2, 11]: 16.2 h
half-life [2, 12]: 2.08 h
half-life ([2]; aqueous phosphate buffer, pH 9): 0.27 h
half-life ([2]; buffer, pH 7.4): 11 h
half-life at 100 µM [3]: 0.488 h
half-life at 100 µM [4]: 2.84 h
half-life at 100 µM [5]: 1.78 h

CCOC(=O)[C@@]1(OC(=O)C(Cl)Cl)[C@H](C)C[C@H]2[C@@H]3CCC4=CC(=O)C=C[C@]4(C)[C@@]3(F)[C@@H](O)C[C@@]21C [J, ethyl 17α-dichloroacetoxy-9α-fluoro-11β-hydroxy-16α-methylandrosta-1,4-dien-3-one-17β-carboxylate]
half-life at 100 µM [6]: 40.1 h
Vasoconstriction activity ([7]; 4 Hours, 0.01 mM): -
Vasoconstriction activity ([7]; 4 Hours, 0.05 mM): -
Vasoconstriction activity ([7]; 4 Hours, 0.1 mM): -
Vasoconstriction activity ([7]; 4 Hours, 0.5 mM): -
Vasoconstriction activity ([7]; 4 Hours, 1 mM): +
Vasoconstriction activity ([7]; 4 Hours, 5 mM): +
Vasoconstriction activity ([7]; 8 Hours, 0.01 mM): -
Vasoconstriction activity ([7]; 8 Hours, 0.05 mM): -
Vasoconstriction activity ([7]; 8 Hours, 0.1 mM): -
Vasoconstriction activity ([7]; 8 Hours, 0.5 mM): +
Vasoconstriction activity ([7]; 8 Hours, 1 mM): +
Vasoconstriction activity ([7]; 8 Hours, 5 mM): +
Vasoconstriction activity ([7]; 10-22 hours, 0.01 mM): -
Vasoconstriction activity ([7]; 10-22 hours, 0.05 mM): -
Vasoconstriction activity ([7]; 10-22 hours, 0.1 mM): -
Vasoconstriction activity ([7]; 10-22 hours, 0.5 mM): +
Vasoconstriction activity ([7]; 10-22 hours, 1 mM): +
Vasoconstriction activity ([7]; 10-22 hours, 5 mM): +
Vasoconstriction activity ([7]; 24 Hours, 0.01 mM): -
Vasoconstriction activity ([7]; 24 Hours, 0.05 mM): -
Vasoconstriction activity ([7]; 24 Hours, 0.1 mM): -
Vasoconstriction activity ([7]; 24 Hours, 0.5 mM): +
Vasoconstriction activity ([7]; 24 Hours, 1 mM): +
Vasoconstriction activity ([7]; 24 Hours, 5 mM): +
half-life at 100 µM [8]: 40.7 h

C[C@]12C=CC(=O)C=C1CC[C@@H]1[C@@H]2[C@@H](O)C[C@@]2(C)[C@H]1CC[C@]2(OC(=O)C(Cl)Cl)C(=O)OCCl [Compound D, Chloromethyl 17α-dichloroacetoxy-11β-hydroxyandrosta-1,4-dien-3-one-17β-carboxylate]
Vasoconstriction activity ([1]; 1 hour after patch removal): 3
Vasoconstriction activity ([1]; 8 hours after patch removal): 4
Vasoconstriction activity ([1]; 17 hours after patch removal): 3
Vasoconstriction activity ([1]; 24 hours after patch removal): 2
half-life [2, 9]: 14 h
half-life [2, 10]: 0.822 h
half-life [2, 11]: 0.232 h
half-life [2, 12]: 0.0483 h
half-life ([2]; aqueous phosphate buffer, pH 9): 0.0178 h
half-life ([2]; buffer, pH 7.4): 0.232 h
half-life at 100 µM [3]: 0.127 h
half-life at 100 µM [4]: 0.873 h
half-life at 100 µM [5]: 0.193 h

COC(=O)[C@@]1(OC(=O)C(Cl)Cl)[C@H](C)C[C@H]2[C@@H]3CCC4=CC(=O)C=C[C@]4(C)[C@@]3(F)[C@@H](O)C[C@@]21C [Compound I, methyl 17α-dichloroacetoxy-9α-fluoro-11β-hydroxy-16α-methylandrosta-1,4-dien-3-one-17β-carboxylate]
half-life at 100 µM [6]: 10.9 h
Vasoconstriction activity ([7]; 4 Hours, 0.01 mM): -
Vasoconstriction activity ([7]; 4 Hours, 0.05 mM): -
Vasoconstriction activity ([7]; 4 Hours, 0.1 mM): +
Vasoconstriction activity ([7]; 4 Hours, 0.5 mM): +
Vasoconstriction activity ([7]; 4 Hours, 1 mM): +
Vasoconstriction activity ([7]; 4 Hours, 5 mM): +
Vasoconstriction activity ([7]; 8 Hours, 0.01 mM): -
Vasoconstriction activity ([7]; 8 Hours, 0.05 mM): +
Vasoconstriction activity ([7]; 8 Hours, 0.1 mM): +
Vasoconstriction activity ([7]; 8 Hours, 0.5 mM): +
Vasoconstriction activity ([7]; 8 Hours, 1 mM): +
Vasoconstriction activity ([7]; 8 Hours, 5 mM): +
Vasoconstriction activity ([7]; 10-22 hours, 0.01 mM): -
Vasoconstriction activity ([7]; 10-22 hours, 0.05 mM): -
Vasoconstriction activity ([7]; 10-22 hours, 0.1 mM): +
Vasoconstriction activity ([7]; 10-22 hours, 0.5 mM): +
Vasoconstriction activity ([7]; 10-22 hours, 1 mM): +
Vasoconstriction activity ([7]; 10-22 hours, 5 mM): +
Vasoconstriction activity ([7]; 24 Hours, 0.01 mM): -
Vasoconstriction activity ([7]; 24 Hours, 0.05 mM): -
Vasoconstriction activity ([7]; 24 Hours, 0.1 mM): +
Vasoconstriction activity ([7]; 24 Hours, 0.5 mM): +
Vasoconstriction activity ([7]; 24 Hours, 1 mM): +
Vasoconstriction activity ([7]; 24 Hours, 5 mM): +
half-life at 100 µM [8]: 9.88 h

CCCCC(=O)O[C@]1(C(=O)CO)[C@@H](C)C[C@H]2[C@@H]3CCC4=CC(=O)C=C[C@]4(C)[C@@]3(F)[C@@H](O)C[C@@]21C [Betamethasone 17-valerate, reference compound]
Vasoconstriction activity ([7]; 4 Hours, 0.01 mM): -
Vasoconstriction activity ([7]; 4 Hours, 0.05 mM): -
Vasoconstriction activity ([7]; 4 Hours, 0.1 mM): -
Vasoconstriction activity ([7]; 4 Hours, 0.5 mM): -
Vasoconstriction activity ([7]; 4 Hours, 1 mM): +
Vasoconstriction activity ([7]; 4 Hours, 5 mM): +
Vasoconstriction activity ([7]; 8 Hours, 0.01 mM): -
Vasoconstriction activity ([7]; 8 Hours, 0.05 mM): -
Vasoconstriction activity ([7]; 8 Hours, 0.1 mM): -
Vasoconstriction activity ([7]; 8 Hours, 0.5 mM): +
Vasoconstriction activity ([7]; 8 Hours, 1 mM): +
Vasoconstriction activity ([7]; 8 Hours, 5 mM): +
Vasoconstriction activity ([7]; 10-22 hours, 0.01 mM): -
Vasoconstriction activity ([7]; 10-22 hours, 0.05 mM): -
Vasoconstriction activity ([7]; 10-22 hours, 0.1 mM): -
Vasoconstriction activity ([7]; 10-22 hours, 0.5 mM): +
Vasoconstriction activity ([7]; 10-22 hours, 1 mM): +
Vasoconstriction activity ([7]; 10-22 hours, 5 mM): +
Vasoconstriction activity ([7]; 24 Hours, 0.01 mM): -
Vasoconstriction activity ([7]; 24 Hours, 0.05 mM): -
Vasoconstriction activity ([7]; 24 Hours, 0.1 mM): -
Vasoconstriction activity ([7]; 24 Hours, 0.5 mM): -
Vasoconstriction activity ([7]; 24 Hours, 1 mM): +
Vasoconstriction activity ([7]; 24 Hours, 5 mM): +

COC(=O)[C@@]1(OC(=O)C(Cl)Cl)CC[C@H]2[C@@H]3CCC4=CC(=O)C=C[C@]4(C)[C@H]3[C@@H](O)C[C@@]21C [Compound A, Methyl 17α-dichloroacetoxy-11β-hydroxyandrosta-1,4-dien-3-one-17β-carboxylate]
Vasoconstriction activity ([1]; 1 hour after patch removal): 2
Vasoconstriction activity ([1]; 8 hours after patch removal): 4
Vasoconstriction activity ([1]; 17 hours after patch removal): 4
Vasoconstriction activity ([1]; 24 hours after patch removal): 4
half-life [2, 9]: > 48 h
half-life [2, 10]: 19.1 h
half-life [2, 11]: 3.37 h
half-life [2, 12]: 0.35 h
half-life ([2]; aqueous phosphate buffer, pH 9): 0.0708 h
half-life ([2]; buffer, pH 7.4): 3.37 h
half-life at 100 µM [3]: 0.0617 h
half-life at 100 µM [4]: 0.718 h
half-life at 100 µM [5]: 0.448 h
